Assay results from paper PMC2704987 (Pharmacotherapy, 2009).
Read-outs that look alike come from different tables or passages of the source. Blank lines part the entries; values can stand above or below the compound they belong to.

Experiments:
[1] = oral azithromycin, 12 CF patients; cited from earlier work
[2] = adults, 150 mg/day; cited from earlier work
[3] = child with glioblastoma, cited from earlier work
[4] = cited from earlier work
[5] = adults, 150 mg/day; cited from earlier work; remark: listed apart in the source
[6] = children, 120 mg/m^2/day, range in parentheses; cited from earlier work
[7] = cited from earlier work; remark: listed apart in the source
[8] = cited from earlier work; remark: listed apart in the source
[9] = type: in vivo, human; conditions: for AUC / Cmax: human, plasma, po, 120 mg/m^2/day, oral erlotinib 120 mg/m^2/day (150 mg)
[10] = orally administered ganciclovir; cited from earlier work
[11] = adult patients with advanced malignant disease
[12] = cystic fibrosis patient, oral erlotinib 150 mg daily

Compound: CC[C@H]1OC(=O)[C@H](C)[C@@H](O[C@H]2C[C@@](C)(OC)[C@@H](O)[C@H](C)O2)[C@H](C)[C@@H](O[C@@H]2O[C@H](C)C[C@H](N(C)C)[C@H]2O)[C@](C)(O)C[C@@H](C)CN(C)[C@H](C)[C@@H](O)[C@]1(C)O [azithromycin]
Cmax, Tmax, and AUC values, CF patients versus healthy volunteers [1]: similar
absorption rate constant (ka) and absolute bioavailability (F), CF patients versus healthy volunteers [1]: no statistically significant difference

ka (absorption rate constant) ([9]; cystic fibrosis patient, oral erlotinib 120 mg/m^2/day): 1.51 h^−
VdERL (apparent volume of distribution of erlotinib) ([9]; cystic fibrosis patient, oral erlotinib 120 mg/m^2/day, with pancrelipase): 60.4 L/m^2
Apparent clearance of erlotinib [9, 12]: 4.9 L/h/m^2
Apparent volume of distribution of erlotinib [9, 12]: 60.4 L
rate of erlotinib absorption (ka) [9, 12]: 1.51 h⁻¹
absorption of orally administered erlotinib in a cystic fibrosis patient ([9]; given concomitantly with pancreatic enzymes replacement therapy): not affected
AUC ([9]; Day 1 AUCERL, cystic fibrosis patient, day 1, plasma): 18800 ng·h/mL
Cmax ([9]; Day 1 Cmax, cystic fibrosis patient, day 1, plasma): 1440 ng/mL
AUC ([9]; Day 8 AUCERL, cystic fibrosis patient, day 8 (steady state)): 25700 ng·h/mL
Cmax ([9]; Day 8 Cmax, cystic fibrosis patient, day 8, plasma): 1460 ng/mL
Compound: C#Cc1cccc(Nc2ncnc3cc(OCCOC)c(OCCOC)cc23)c1 [erlotinib]
Day 1 AUCERL [2]: 19400 ± 10000 ng·h/mL
Day 1 AUCERL ([3]; 70 mg/m^2/day): 19400 ng·h/mL
Day 8 AUCERL ([3]; 70 mg/m^2/day): 32600 ng·h/mL
ka ([3]; 70 mg/m^2/day): 0.59 h^−
penetration of erlotinib into the CSF ([3]; oral erlotinib): modest
bound to plasma proteins [4]: 95%
Day 1 AUCERL [5]: 16540 ± 11020 ng·h/mL
Day 1 AUCERL [6]: 22.6 (18.2–27) mcg*h/mL
Day 1 Cmax [6]: 1260 (490–2020) ng/mL
Day 8 AUCERL [6]: 29.5 (12–47) mcg*h/mL
solubility in water and methanol [7]: poor
half-life [8, 11]: 10 to 36 h
time to maximum concentration (Cmax) after dose administration [8, 11]: 2 to 4 h
bioavailability after oral administration with food ([8]; adults, administration with food): ≥ 100%
elimination in feces ([8]; adults, biliary excretion): 63%
bioavailability after oral administration ([8]; adults, without food): approximately 60%
elimination in urine ([8]; adults): 13%

Compound: Nc1nc(O)c2ncn(COC(CO)CO)c2n1 [ganciclovir]
pharmacokinetic parameters in post-lung transplant patients with CF [10]: predictable
